SMILES strings stand for the structures. Where “and” joins values, the source holds several entries; their conditions need not be identical. Equal entries are not always repeated. Calls of active or inactive are those of the source.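 How the source made its calls: active means compounds giving half or more protection of infected cells from virus-caused growth loss, again on retest; inactive means the rest.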

The subject of this experiment is CEM cells HIV-1 protection, formazan growth assay. Kind of experiment: NCI AIDS Antiviral Assay. The note with it: for IC50: measured here: growth of uninfected CEM cells. A digest of the protocol: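 Screen of anti-HIV-1 activity in human CEM cells using a formazan-based growth measurement at five drug concentrations. Hits with 50% or greater protection were repeated, and confirmation required reproducible complete protection.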

As a reminder, the EC50 is the concentration giving half of the maximal effect. As a reminder, the IC50 is the midpoint of a concentration-inhibition curve. Turning to `COC(=O)C(=O)C(C(=O)C1=NS(=O)(=O)c2cc(S(N)(=O)=O)c(Cl)cc2N1)c1nc2ccc(C(=O)c3ccccc3)cc2[nH]c1=O` (configuration not stated), the EC50 is above 195 µM and the IC50 is 49 µM.

On to `CCOC(=O)/C(=C/n1c(=S)[nH]c2ccc([N+](=O)[O-])cc21)C(=O)c1ccccc1`, for which the EC50 is above 200 µM and the IC50 was 141 µM.

Consider `CCOC(=O)C1=C(C)Nc2ccccc2S1`, for which the outcome was inactive.

Consider `CCCCCc1cc(CCCC)sc1-c1ccco1`, for which the EC50 is above 200 µM and the IC50 turned out to be 145 µM.

As to `COc1cc(N)ccc1Nc1c2ccccc2nc2ccccc12`, the EC50 is above 200 µM and the IC50 came to 1.02 µM.

With `Cc1cn(C2CC3C(COC(c4ccccc4)N3O)O2)c(=O)[nH]c1=O` (configuration not stated), the EC50 was above 200 µM and the IC50 stood at 34.7 µM.

On to `Cc1cc(NCCCCCCCNc2cc(C)nc3cc([N+](=O)[O-])ccc23)c2ccc([N+](=O)[O-])cc2n1`, for which the outcome was inactive.

Turning to `Cc1ccc(S(=O)(=O)c2ccc(C)cc2[N+](=O)[O-])cc1`, the EC50 was above 24.5 µM and the IC50 was above 24.5 µM.

Turning to `CC(=O)OC1C(COS(=O)(=O)O)OC(O[C@H]2CC[C@@]3(C)C(=CC[C@@H]4C3CC[C@@]3(C)C4CC[C@@H]3C(C)=O)C2)C(OC(C)=O)C1OC(C)=O` (some centres not stated), the EC50 is above 31.6 µM and the IC50 is above 31.6 µM.

As for `COC(=O)c1c/c(=N\NC(=O)CC(=O)Nc2ccccc2Cl)c2ccccc2o1`, the EC50 was 166 µM and the IC50 is 302 µM.

With `CCCc1ccc(OC2OC(CO)C(O)C(O)C2O)cc1` (configuration not stated), the EC50 is above 302 µM; the IC50 is > 302 µM and 85.1 µM.

Consider `Cc1ccc(-c2cc(-c3ccco3)c(C#N)c(=O)n2C2OC(OC(=O)c3ccccc3)C(OC(=O)c3ccccc3)C2OC(=O)c2ccccc2)cc1` (configuration not stated), for which the EC50 is above 10.2 µM and the IC50 is above 10.2 µM.

With `COC(=O)c1cc2cnc1CSCc1cnc(c(C(=O)OC)c1)CSC2`, the EC50 is above 200 µM and the IC50 was above 200 µM.

With `Cc1cc(=O)cc2sc3c(C)cccc3nc1-2`, the EC50 is above 30.2 µM and the half-maximal inhibitory concentration (IC50) is above 30.2 µM.

Take `N#C/C=C\c1ccc(Cl)cc1`: the EC50 is above 43.7 µM and the IC50 was above 43.7 µM.

In the case of `Cc1ccccc1Nc1ccc([N+](=O)[O-])c2nonc12`, the EC50 is above 83.2 µM and the IC50 was found to be 33.1 µM.

Consider `CN(C)c1nc(=Nc2ccc3c(c2)OCO3)ss1`, for which the outcome was inactive.

As for `C[C@H]1CC[C@H]([C@@H](C)[C@H]2[C@@H](O)C[C@H]3[C@@H]4CC[C@H]5C[C@@H](O)CC[C@]5(C)[C@H]4CC[C@]23C)NC1`, the EC50 is above 200 µM and the IC50 is 12.6 µM.

For the compound `c1ccc2c(c1)SCCCS2`, the EC50 was above 39.8 µM and the IC50 was above 39.8 µM.

On to `Cc1cnnc2c3ccccc3nn12`, for which the EC50 was above 123 µM and the IC50 was above 123 µM.

On to `CN(C)N1C(=O)C(=O)N(c2cccc3ccccc23)C1=O`, for which the EC50 was above 200 µM and the IC50 was above 200 µM.

As for `COc1ncnc2c1ncn2C1CC(O)C(CO)(C(F)(F)F)O1` (configuration not stated), the EC50 is above 200 µM and the IC50 was above 200 µM.

With `O=[N+]([O-])c1ccc(C2N3CCCCC3[C@@H]3c4[nH]c5ccccc5c4CCN23)cc1` (some centres not stated), the EC50 is above 34.7 µM and the IC50 is above 34.7 µM.

In the case of `O=C(Nc1ccccc1)N(CCCCN(Cc1ccccc1)C(=O)Nc1ccccc1)Cc1ccccc1`, the EC50 is above 200 µM and the IC50 worked out at 112 µM.

Regarding `Cc1ccc2c(c1)C(=O)c1cc(C)cc(C(=O)O)c1-2`, the EC50 is above 200 µM and the half-maximal inhibitory concentration (IC50) was above 200 µM.

With `CC(=O)Nc1ccc(C=Nc2ccc(SSc3ccc(N=Cc4ccc(NC(C)=O)cc4)cc3)cc2)cc1`, the EC50 is above 200 µM and the IC50 was found to be 23.4 µM.

On to `COc1c(C(=O)O)oc2c(OC)cccc12`, for which the outcome was inactive.

As for `Cc1c2cc(Cl)ccc2n2c(=O)c3ccccc3[nH]c(=O)c12`, the EC50 was above 15.8 µM and the IC50 was above 15.8 µM.

Consider `O=C1CCC(c2nc3ccccc3o2)C(=O)N1` (configuration not stated), for which the EC50 was above 1070 µM and the IC50 was above 1070 µM.

Turning to `Nc1nc2c3c(ncn3CC(O)CO2)n1` (configuration not stated), the EC50 was above 9.55 µM and the IC50 is above 9.55 µM.

On to `COc1ccc(C2CC(c3ccc4ccccc4c3O)=NN2C(C)=O)cc1OC` (configuration not stated), for which the EC50 is above 50.1 µM and the IC50 is above 50.1 µM.

For `NC(=O)c1cc([N+](=O)[O-])cc([N+](=O)[O-])c1`, the EC50 is above 200 µM and the IC50 is 40.7 µM.

For the compound `COC(=O)c1c(C)c(=O)n(C)c(=O)n1C`, the outcome was inactive.

As for `COc1cc2cc(C(=O)N3CC(CCl)c4c3cc([N+](=O)[O-])c3ccccc43)[nH]c2c(OC)c1OC` (configuration not stated), the EC50 is above 10 µM and the half-maximal inhibitory concentration (IC50) stood at 2.4 µM.

On to `CCOC(=O)C(=CNC(=S)Nc1ccccc1)C(=O)OCC`, for which the EC50 was above 200 µM and the 50% inhibitory concentration (IC50) is above 200 µM.

`Cc1cc(NC(=O)C(=O)Cc2cnc3ccccc3n2)c(S(=O)(=O)O)cc1Cl`: the EC50 was above 589 µM and the IC50 was above 589 µM.

On to `Cc1ccc(C2=C(C#N)C(=O)N3CCN=C3S2)cc1`, for which the EC50 is above 200 µM and the IC50 was above 100 µM.

Consider `O=C1c2ccccc2Sc2ccccc2N1CCCCCCN1CCN(c2ccc(F)cc2)CC1`, for which the EC50 is above 200 µM and the IC50 was 10.5 µM.

Turning to `O=C(OC1CC(OC(=O)c2cc(O)c(O)c(O)c2)(C(=O)O)C[C@H](OC(=O)c2cc(O)c(O)c(O)c2)C1OC(=O)c1cc(O)c(O)c(O)c1)c1cc(O)c(O)c(O)c1` (some centres not stated), the outcome was inactive.

Turning to `Cc1ccc(/C=C/C(=O)C(C)(C)CN2CCCCC2)cc1`, the EC50 is above 27.5 µM and the IC50 is above 27.5 µM.

Turning to `Oc1ccc2ccccc2c1OCc1nnc(CCCCCCCCc2nnc(COc3c(O)ccc4ccccc34)o2)o1`, the EC50 is above 200 µM and the concentration for half-maximal inhibition (IC50) was found to be 47.9 µM.

For `Cc1ccc(S(=O)Cc2ccc(C(=O)O)cc2[N+](=O)[O-])cc1` (configuration not stated), the outcome was inactive.

In the case of `Nc1nc(=S)[nH]c(C(=O)Nc2nccs2)c1-c1ccccc1`, the EC50 is above 21.9 µM and the concentration for half-maximal inhibition (IC50) was above 21.9 µM.

As to `OC1(c2ccccc2)C2CCN(CC2)C1CN1CCOCC1` (configuration not stated), the EC50 was above 200 µM and the IC50 is above 200 µM.

For `COC(=O)C1CCC(=O)N1C(c1cc(OC)c(OC)c(OC)c1)c1cc(OC)c(OC)c(OC)c1` (configuration not stated), the EC50 was above 200 µM and the IC50 is 55 µM.

As to `CCOC(=O)CCC(NC(=O)c1ccc(Nc2nc3ccccc3nc2-c2cccs2)cc1)C(=O)OCC` (configuration not stated), the EC50 is above 200 µM and the IC50 is 13.5 µM.

As for `CCOC(=O)C(C(=O)OCC)=C1C=C(c2ccccc2)c2ccccc21`, the result was inactive.

For `CCOC(=O)c1oc2c(OC)cc(Cl)c3c2c1CCC3`, the result was inactive.

For `CC(=O)OCC1OC(Nc2ccc3nc(C)n(-c4cccc(C)c4)c(=O)c3c2)C(OC(C)=O)C(OC(C)=O)C1OC(C)=O` (configuration not stated), the EC50 was above 126 µM and the IC50 was above 126 µM.

For `O=C1NC(=O)/C(=C\c2cccc(Br)c2)N1`, the EC50 was above 200 µM and the IC50 came to 105 µM.

As for `CCOC(=O)C(NC(=O)OCc1ccccc1)C(=O)O` (configuration not stated), the EC50 is above 200 µM and the IC50 was above 200 µM.

For `Oc1cccc(/C=C/c2ccncc2)c1`, the EC50 was above 36.3 µM and the IC50 is above 36.3 µM.

As to `CCCCCCCCCCCCSC(=S)c1c(C)[nH]n(-c2ccccc2)c1=O`, the EC50 is above 42.7 µM and the IC50 amounted to 15.8 µM.

In the case of `C/C=C1/CN2C3CC1C1(C(=O)OC)C(OC(C)=O)[C@]4(C[C@H]21)c1cc(OC)ccc1N(C)C34` (some centres not stated), the result was inactive.

Turning to `O=c1c(NCc2ccccc2)c(C2(c3ccccc3F)SCCCS2)c1=O`, the EC50 was above 200 µM and the concentration for half-maximal inhibition (IC50) was found to be 151 µM.

Regarding `CCOC(=O)c1nc(SC)sc1NC(=O)c1ccccc1Cl`, the EC50 is above 200 µM and the IC50 turned out to be 9.55 µM.

With `COc1cc(O)c2c(c1)C(=O)C=C(Cl)C2=O`, the outcome was inactive.

As for `CC(C)=CCc1[nH]c2ccccc2c1C1=C(O)C(=O)C(c2c(CC=C(C)C)[nH]c3ccccc23)=C(O)C1=O`, the EC50 was above 200 µM and the IC50 came to 1.74 µM.

For the compound `O=C(O)c1ccc(SSc2ccc(C(=O)O)cc2)cc1`, the EC50 was 123 µM and the IC50 was above 200 µM.

`CC1(C)OCC2OC3(c4nc(C#N)c(N)o4)OC(C)(C)OC3C2O1` (configuration not stated): the EC50 is above 50.1 µM and the IC50 is above 50.1 µM.

On to `CCOC(=O)Nc1[nH]c(C)c(Cc2ccccc2)c1C#N`, for which the EC50 is above 200 µM and the half-inhibitory concentration (IC50) was 12.3 µM.

With `O=c1c(S(=O)(=O)Oc2ccccc2)coc2cc(F)ccc12`, the EC50 is above 200 µM and the 50% inhibitory concentration (IC50) was found to be 135 µM.

As to `Cc1c(C)n2c(=O)n(-c3ccccc3)c(=O)n2c1=O`, the EC50 was above 977 µM and the IC50 is 617 µM.

Regarding `Cc1ccc(S(=O)(=O)c2c(O)c3ccccc3n(C)c2=O)cc1`, the EC50 was above 200 µM and the IC50 is above 200 µM.

On to `CCC(=O)C1(c2ccccc2)CCN(C)CC1`, for which the EC50 is above 1070 µM.

On to `CCCCCCC(=O)C/C(CCC(=O)N(Cc1ccccc1)Cc1ccccc1)=N\Nc1ccc([N+](=O)[O-])cc1[N+](=O)[O-]`, for which the EC50 is above 12.3 µM and the IC50 was above 12.3 µM.

As for `O=C1CNC(=O)c2ncn(C3OC(CO)C(O)C3O)c2N1` (configuration not stated), the EC50 was above 240 µM and the IC50 is above 240 µM.

Consider `CN(C)c1ccc(/C(=N\N)c2ccccc2)cc1`, for which the EC50 was above 200 µM and the IC50 was 112 µM.

`N=c1nnc(=O)c2c(s1)-n1ncc(C(=O)O)c1NN2`: the EC50 was above 81.3 µM and the IC50 is above 81.3 µM.

As for `COc1cc2ccc1OCc1cccc(n1)COc1ccc(cc1OC)C=Nc1ccc(cc1)-c1ccc(cc1)N=C2`, the EC50 was above 200 µM and the IC50 was above 200 µM.

Consider `CC(C)=CCN1CC(C)Cn2c(=S)[nH]c3cccc1c32` (configuration not stated), for which the EC50 is 1.17 µM and the IC50 is above 100 µM.

In the case of `CCOP(=Nc1ccc(N(C)C)cc1)(OCC)OCC`, the EC50 was above 200 µM and the half-maximal inhibitory concentration (IC50) is above 200 µM.
